The target of the experiment is Voltage-gated potassium channel, KQT; KCNQ2(Kv7.2)/KCNQ3(Kv7.3) (Homo sapiens, UniProt O43525+O43526). Kind of experiment: Activation of KCNQ2/Q3. It is filed as protein-complex assay.
Chain of Voltage-gated potassium channel, KQT; KCNQ2(Kv7.2)/KCNQ3(Kv7.3) (O43526 whole entry): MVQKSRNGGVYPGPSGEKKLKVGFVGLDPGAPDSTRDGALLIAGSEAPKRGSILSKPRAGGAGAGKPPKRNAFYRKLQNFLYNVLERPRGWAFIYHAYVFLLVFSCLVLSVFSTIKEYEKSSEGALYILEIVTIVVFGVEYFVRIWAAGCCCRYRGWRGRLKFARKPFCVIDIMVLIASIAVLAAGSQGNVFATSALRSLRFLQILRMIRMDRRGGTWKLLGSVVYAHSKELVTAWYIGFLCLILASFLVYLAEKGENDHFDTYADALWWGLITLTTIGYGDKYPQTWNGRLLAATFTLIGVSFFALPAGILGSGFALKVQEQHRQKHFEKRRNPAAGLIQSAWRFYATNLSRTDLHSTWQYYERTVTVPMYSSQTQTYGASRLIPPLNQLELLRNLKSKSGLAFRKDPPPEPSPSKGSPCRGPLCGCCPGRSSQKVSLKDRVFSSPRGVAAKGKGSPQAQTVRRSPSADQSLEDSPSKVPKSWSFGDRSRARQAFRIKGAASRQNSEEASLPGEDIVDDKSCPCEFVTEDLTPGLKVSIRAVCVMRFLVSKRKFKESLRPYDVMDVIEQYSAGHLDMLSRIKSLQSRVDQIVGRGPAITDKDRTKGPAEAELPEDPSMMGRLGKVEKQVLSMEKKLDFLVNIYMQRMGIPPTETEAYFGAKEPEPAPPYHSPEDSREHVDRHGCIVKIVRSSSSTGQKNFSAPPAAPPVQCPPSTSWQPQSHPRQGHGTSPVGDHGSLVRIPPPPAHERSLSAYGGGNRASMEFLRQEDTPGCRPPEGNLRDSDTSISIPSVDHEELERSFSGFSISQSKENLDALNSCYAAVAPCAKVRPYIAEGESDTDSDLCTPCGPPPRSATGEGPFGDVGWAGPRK
Chain of Voltage-gated potassium channel, KQT; KCNQ2(Kv7.2)/KCNQ3(Kv7.3) (O43525 whole entry): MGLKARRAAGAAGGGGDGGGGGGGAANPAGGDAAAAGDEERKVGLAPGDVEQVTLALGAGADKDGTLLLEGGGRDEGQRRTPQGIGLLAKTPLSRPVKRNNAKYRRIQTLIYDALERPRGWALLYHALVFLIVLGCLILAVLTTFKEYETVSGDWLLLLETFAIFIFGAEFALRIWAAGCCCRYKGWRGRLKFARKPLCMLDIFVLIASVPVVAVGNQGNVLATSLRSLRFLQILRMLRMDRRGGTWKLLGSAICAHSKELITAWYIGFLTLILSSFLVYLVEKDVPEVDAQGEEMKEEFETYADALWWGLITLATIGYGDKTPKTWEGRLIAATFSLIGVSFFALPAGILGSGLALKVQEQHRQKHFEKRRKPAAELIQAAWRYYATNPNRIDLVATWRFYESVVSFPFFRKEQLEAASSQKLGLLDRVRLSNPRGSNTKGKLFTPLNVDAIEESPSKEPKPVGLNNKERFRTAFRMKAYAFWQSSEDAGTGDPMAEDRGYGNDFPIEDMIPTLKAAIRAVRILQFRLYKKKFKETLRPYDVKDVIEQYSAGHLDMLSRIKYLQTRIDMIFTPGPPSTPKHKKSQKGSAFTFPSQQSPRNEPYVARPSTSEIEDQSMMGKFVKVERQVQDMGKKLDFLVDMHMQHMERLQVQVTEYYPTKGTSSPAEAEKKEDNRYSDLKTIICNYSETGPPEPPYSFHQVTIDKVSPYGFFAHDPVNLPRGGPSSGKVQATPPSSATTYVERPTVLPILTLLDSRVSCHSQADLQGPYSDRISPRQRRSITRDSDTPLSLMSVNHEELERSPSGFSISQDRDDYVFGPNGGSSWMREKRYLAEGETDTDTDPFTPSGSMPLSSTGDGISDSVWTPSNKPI
For `CC(C)(C)CC(=O)Nc1nn2cccnc2c1-c1ccc(OC(F)(F)F)cc1`, the concentration for a half-maximal effect (EC50) is < 0.5 µM.

With `CC(C)(C)CC(=O)Nc1nn2cccnc2c1-c1ccc(F)cc1`, the 50% effective concentration (EC50) was < 1 µM. In the case of `Cc1cnc2c(Cc3ccc(F)cc3)c(NC(=O)CC3CCCC3)nn2c1` it was < 0.1 µM.

(Values after ChEMBL document CHEMBL2146429, “Potassium channel modulators as possible treatment for pain: patent highlight” (ACS Med Chem Lett, 2012).)
